Like-named read-outs stand apart in the source and are kept apart here.
Legend:
[1] = Plasma protein binding (RED), human; assay type: in vitro ADME
Experimental: (§1) Rapid Equilibrium Dialysis device (RED) is a 96-well formatted dialysis with disposable inserts and Teflon base design providing short incubation time. The membrane in RED physically separates of bound and free drug. After 4 hr incubation at 37° C., drug concentrations at both plasma (e.g., human, rat, dog, monkey, mouse) and pH 7.4 PBS buffer sides was quantitated by LC/MS/MS and % bound drug in plasma was calculated.

[2] = target: CYP2C9 (Homo sapiens, UniProt P11712); experiment: Cytochrome P450 inhibition, CYP2C9
CYP2C9, sequence (P11712 whole entry): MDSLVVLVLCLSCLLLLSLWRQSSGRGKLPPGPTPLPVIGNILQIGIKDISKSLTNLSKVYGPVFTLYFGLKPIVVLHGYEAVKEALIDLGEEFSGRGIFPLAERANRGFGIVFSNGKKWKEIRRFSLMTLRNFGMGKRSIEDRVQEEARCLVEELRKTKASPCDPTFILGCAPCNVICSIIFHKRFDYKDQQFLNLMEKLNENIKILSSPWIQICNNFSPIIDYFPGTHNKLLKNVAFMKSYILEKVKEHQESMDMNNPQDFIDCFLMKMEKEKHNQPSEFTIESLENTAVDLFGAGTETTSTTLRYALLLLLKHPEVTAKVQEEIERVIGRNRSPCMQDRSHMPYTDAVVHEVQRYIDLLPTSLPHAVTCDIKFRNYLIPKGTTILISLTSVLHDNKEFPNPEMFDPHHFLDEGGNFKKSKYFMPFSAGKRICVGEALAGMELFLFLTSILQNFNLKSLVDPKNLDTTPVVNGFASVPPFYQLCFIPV
Source text: (§2) This cytochrome P450 high throughput IC50 inhibition assay is utilized for screening potential inhibitors of the 5 major human CYP isozyme catalytic activities (CYP3A4, 2D6, 2C9, 2C19, and 1A2).

[3] = Mouse PK study; assay type: in vivo; details: Table 3
Experimental: The rodent PK study designs provide reliable estimation of PK parameters using fewer animals. Often two routes, PO and IV, were included in the rodent PK study protocols with three subjects in each dosing group (often PO at 10 mg/kg and IV at 3 mg/kg).

[4] = Hepatocyte stability, rat; assay type: in vitro ADME; details: for Hepatocyte stability (CL) rat: Table 2; for CLint scaled: hepatocytes, Example 12 chart
Experimental: (§3) Liver microsomes and hepatocytes represent an in vitro surrogate for assessing the phase I/II metabolic stability of new discovery leads. Following the incubation of the compounds with microsomes or hepatocytes of different species (e.g., human, rat, dog, monkey, mouse), the samples were transferred to 96 well plates for quantitation using LC/MS/MS. The % of compound remaining was measured and used to calculate clearance and % hepatic blood flow.

[5] = tested on: Schistosomes lavae; experiment: Screening against Schistosomes, larvae; assay type: cell-based; details: Screening Data
[6] = Hepatocyte stability, human; assay type: in vitro ADME; details: for Hepatocyte stability (CL) human: Table 2; for CLint scaled: hepatocytes, Example 12 chart
Experimental: as §3

[7] = Plasma protein binding (RED), mouse; assay type: in vitro ADME; details: for fraction unbound at 4 hr: plasma
Experimental: as §1

[8] = Mouse brain exposure; assay type: in vivo; details: Table 3; for AUC: mouse brain; for Kp: mouse, read-out: Mouse Brain exposure compared with blood AUC (%)
Experimental: This was determined by harvesting brains at selected time points, weighing and extracting total tissue homogenate for LC/MS/MS analysis. The amount of test compound associated with the brain was calculated by subtracting that amount attributable to blood vessels (7%, times the blood exposure levels).

[9] = tested on: Schistosomes adult; experiment: Screening against Schistosomes, adult; assay type: cell-based; details: Screening Data
[10] = Microsomal stability, rat; assay type: in vitro ADME; details: for Microsomal stability (CL) rat: Table 2; for CLint scaled: Example 12 chart
Experimental: as §3

[11] = target: CYP2C19 (Homo sapiens, UniProt P33261); experiment: Cytochrome P450 inhibition, CYP2C19
CYP2C19, sequence (P33261 whole entry): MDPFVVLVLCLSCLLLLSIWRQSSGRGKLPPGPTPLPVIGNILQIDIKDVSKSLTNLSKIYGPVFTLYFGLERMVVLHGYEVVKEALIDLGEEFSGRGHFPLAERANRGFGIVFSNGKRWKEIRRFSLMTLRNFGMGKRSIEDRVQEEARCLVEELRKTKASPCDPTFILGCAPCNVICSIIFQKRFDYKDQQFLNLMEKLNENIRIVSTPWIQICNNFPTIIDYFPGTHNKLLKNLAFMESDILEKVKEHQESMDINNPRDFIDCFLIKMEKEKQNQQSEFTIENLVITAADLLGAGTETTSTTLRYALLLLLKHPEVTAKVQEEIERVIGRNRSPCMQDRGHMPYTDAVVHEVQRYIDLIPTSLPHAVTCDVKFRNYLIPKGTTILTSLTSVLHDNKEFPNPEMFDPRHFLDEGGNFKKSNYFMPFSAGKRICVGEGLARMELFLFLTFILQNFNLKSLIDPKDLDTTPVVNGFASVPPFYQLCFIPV
Source text: as §2

[12] = tested on: L. donovani (axenic); experiment: Screening against L. donovani (axenic); assay type: cell-based; details: Leishmania donovani; Screening Data
[13] = tested on: T. b. brucei; experiment: Cell-based screening against T. b. brucei; parameters: species or system Trypanosoma brucei brucei; details: Screening Data, two values per compound
Experimental: (§4) The bloodstream form trypomastigotes of the three strains are maintained according to standard protocols established at STI.
(§5) Drug sensitivity assays are performed in sterile 96-well microtiter plates, with or without serial drug dilutions. The highest concentration for the test compounds is 90 μg/ml. Each drug is tested in duplicate. After 72 hours of incubation the plates are inspected microscopically to assure growth of the controls to determine the minimum inhibitory concentration (MIC), i.e., the lowest drug concentration at which no trypanosomes with normal morphology and motility can be seen compared to control wells. Cell viability is measured by Alamar blue staining and IC50 values are calculated.
Active compounds (IC50<0.2 μg/ml) are tested against the Trypanosoma brucei gambiense STIB 930 and the multi-drug resistant T. b. brucei STIB 950 following the same protocol as described above.
This example provides data relating to the biological screening results. MDL 73811 and selected new compounds 1-7 were tested against a variety of cell-based organisms and enzymes and the IC50 measured. In vitro ADME profiles were also obtained. Solubility, permeability, microsomal/hepatocyte stability, cychrome P450 inhibition and plasma protein binding characteristics were probed for each of the compounds. The methodology for these tests are described in previous paragraphs. The results are summarized in the following 2 charts.

[14] = tested on: T. cruzi; experiment: Cell-based screening against T. cruzi; details: Trypanosoma cruzi; Screening Data
[15] = tested on: Trypanosoma brucei rhodesiense strain STIB 900; experiment: Drug sensitivity assay against T. b. rhodesiense (Alamar blue); assay type: cell-based
Source text: Trypanosoma brucei rhodesiense strain STIB 900, a clone of a population isolated in 1982 from a patient in Tanzania which is known to be susceptible to all currently used drugs was used in these assays. The bloodstream form trypomastigotes of this strain were maintained in supplemented Modified Eagle's Medium according to standard protocols (Hirumi H, Hirumi K, 1989. “Continuous cultivation of Trypanosoma brucei blood stream forms in a medium containing a low concentration of serum protein without feeder cell layers”. J Parasitol 75: 985-9).
as §5, with “assays were” for “assays are”, “The compounds were tested at 7 concentrations (drug concentration ranging from 90 μg/ml to 0.123 μg/ml in 3-fold dilutions). The” for “The”, “compounds was” for “compounds is”, “plates were” for “plates are”, “values were” for “values are”
as §4, §5
The preliminary screen used T. b. rhodesiense. The compounds were tested at 7 concentrations (drug concentration ranging from 90 μg/ml to 0.123 μg/ml in 3-fold dilutions).

[16] = Microsomal stability, human; assay type: in vitro ADME; details: for Microsomal stability (CL) human: Table 2; for CLint scaled: Example 12 chart
Experimental: as §3

[17] = target: CYP3A4 (Homo sapiens, UniProt P08684); experiment: Cytochrome P450 inhibition, CYP3A4
CYP3A4, sequence (P08684 whole entry): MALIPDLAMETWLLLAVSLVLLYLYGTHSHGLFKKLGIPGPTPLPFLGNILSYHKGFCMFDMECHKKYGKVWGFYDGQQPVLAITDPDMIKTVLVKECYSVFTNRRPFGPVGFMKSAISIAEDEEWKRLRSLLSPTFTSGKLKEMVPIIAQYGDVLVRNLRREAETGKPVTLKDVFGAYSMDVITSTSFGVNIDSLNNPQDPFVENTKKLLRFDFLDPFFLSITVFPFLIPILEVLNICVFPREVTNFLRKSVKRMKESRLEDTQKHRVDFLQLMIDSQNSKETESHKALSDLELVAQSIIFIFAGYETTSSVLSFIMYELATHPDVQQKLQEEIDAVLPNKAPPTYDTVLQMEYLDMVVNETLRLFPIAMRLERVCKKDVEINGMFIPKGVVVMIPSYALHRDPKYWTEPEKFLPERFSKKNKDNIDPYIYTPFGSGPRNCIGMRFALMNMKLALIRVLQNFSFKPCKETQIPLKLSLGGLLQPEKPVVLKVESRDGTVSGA
Source text: as §2

[18] = LogD
[19] = Solubility in phosphate buffer; assay type: physicochemical; details: for Sol.: Table 2, @ 7.4; for solubility at 16 hours: phosphate buffer
Experimental: A stock solution for each test compound was prepared at 25 mM in DMSO. These were diluted into phosphate buffer and equilibrated for 16 hours at room temperature, and then filtered to remove precipitated compound. The UV absorbance of this equilibrated sample was compared to a single point reference standard.

[20] = plasma, pH 7.4, Example 12 chart, human
[21] = human, probe fluorometric substrates (not named)
[22] = pH 7.4, Example 12 chart, mouse
[23] = Screening Data, read-out: IC50 T. b. rhod.
[24] = Table 1, 72 hours incubation, Alamar blue, read-out: IC50 against T. b. rhodesiense (ug/mL) by STI
[25] = Table 2, read-out: IC50 against T. b. rhodesiense (ug/mL) by STI
[26] = Table 3, read-out: IC50 against T. brucei rhodesiense
[27] = aqueous buffer, kinetic from dmso stock, Example 12 chart, pH 7.4
[28] = read-out: CYP IC50 2C9, Example 12 chart
[29] = read-out: CYP IC50 2C19, Example 12 chart
[30] = read-out: CYP IC50 3A4, Example 12 chart

SMILES | t/2 in mouse [3] | Hepatocyte stability (CL) rat [4] | CLint scaled [4] | IC50 [5] | Hepatocyte stability (CL) human [6] | CLint scaled [6] | Plasma protein binding (%) mouse ([7]; Table 2, mouse plasma) | fraction unbound at 4 hr [7, 22] | IC50 [9] | Microsomal stability (CL) rat [10] | CLint scaled ([10]; liver microsomes) | IC50 [12] | IC50 ([13]; Trypanosoma brucei) | IC50 [14] | IC50 [15, 23] | IC50 [15, 24] | IC50 [15, 25] | Microsomal stability (CL) human [16] | CLint scaled ([16]; liver microsomes) | Sol. [19] | also measured
CN(C/C=C\CN)C[C@H]1O[C@@H](n2cnc3c(N)ncnc32)[C@H](F)[C@@H]1O (stereo in doubt) [Compound 1] | 1.93 h | <11 mL/min/kg | < 3.5 mL/min/kg | > 10 µM | <4.2 mL/min/kg | < 1.7 mL/min/kg | 47.7% | 0.523 | > 10 µM | <11 mL/min/kg | < 7.7 mL/min/kg | > 85 µM | > 14 µM | > 85 µM | 1.39 µM | 0.489 µg/mL | 0.489 µg/mL | <4.2 mL/min/kg | < 4.5 mL/min/kg | >47 (@ 7.4) ug/ml | Plasma Protein Binding % human ([1]; Table 2, human plasma): 23.3%; fraction unbound at 4 hr [1, 20]: 0.767; IC50 [2, 21]: > 5 µM; AUC [8]: 26 ng·h/mL; Kp ([8]; brain relative to blood): 0.0016; IC50 [11, 21]: > 5 µM; IC50 [15, 26]: 0.489 µg/mL; IC50 [17, 21]: > 5 µM; logD [18]: -1.3; solubility at 16 hours [19, 27]: > 47 µg/mL
CN(C/C=C\CN)CC1OC(n2cnc3c(N)ncnc32)C(O)C1O (stereo not shown) [MDL-73811, reference compound] | 2.48 h | <11 mL/min/kg | < 3.5 mL/min/kg | > 10 µM | <4.2 mL/min/kg | < 1.7 mL/min/kg |  |  | > 10 µM | <11 mL/min/kg |  | > 85 µM | 0.171 µM | 19.4 µM | 0.011 µM | 0.004 µg/mL | 0.004 µg/mL | <4.2 mL/min/kg |  | >47 (@ 7.4) ug/ml | Plasma Protein Binding % human ([1]; Example 12 chart, human): 72.9%; fraction unbound ([1]; pH 7.4, Table 2, human plasma): 0.271; IC50 [2]: > 5 µM; IC50 [2, 28]: > 5 µM; Plasma protein binding (%) mouse ([7]; Example 12 chart, mouse): 69.8%; fraction unbound ([7]; pH 7.4, Table 2, mouse plasma): 0.302; AUC ([8]; in vivo): 280 ng·h/mL; Kp ([8]; in vivo): 0.0134; CLint scaled ([10]; microsomes): < 7.7 mL/min/kg; IC50 [11]: > 5 µM; IC50 [11, 29]: > 5 µM; IC50 [13]: 0.257 µM; IC50 [15, 26]: 0.004 µg/mL; CLint scaled ([16]; microsomes): < 4.5 mL/min/kg; IC50 [17]: > 5 µM; IC50 ([17]; human): > 5 µM; solubility [19, 27]: > 47 µg/mL
CN(C/C=C\CN)C[C@H]1O[C@@H](n2cnc3c(N)ncnc32)[C@@H](F)[C@@H]1O [Compound 2] |  | <11 mL/min/kg | < 3.5 mL/min/kg | > 10 µM | <4.2 mL/min/kg | < 1.7 mL/min/kg | 37.2% | 0.628 | > 10 µM | <11 mL/min/kg | < 7.7 mL/min/kg | > 85 µM | > 14 µM | > 85 µM | 2.59 µM | 0.908 µg/mL | 0.908 µg/mL | <4.2 mL/min/kg | < 4.5 mL/min/kg | >47 (@ 7.4) ug/ml | Plasma Protein Binding % human ([1]; Table 2, human plasma): 32.2%; fraction unbound at 4 hr [1, 20]: 0.678; IC50 [2]: > 5 µM; IC50 [2, 28]: > 5 µM; IC50 [11]: > 5 µM; IC50 [11, 29]: > 5 µM; IC50 [17]: > 5 µM; IC50 [17, 30]: > 5 µM; logD [18]: -1.2; solubility at 16 hours [19, 27]: > 47 µg/mL
CN(C/C=C\CN)C[C@H]1O[C@@H](n2cnc3c(N)nc(Cl)nc32)[C@H](O)[C@@H]1O [Compound 3] | 1.66 h | <11 mL/min/kg | < 3.5 mL/min/kg | > 10 µM | <4.2 mL/min/kg | < 1.7 mL/min/kg | 42.2% | 0.578 | > 10 µM | <11 mL/min/kg | < 7.7 mL/min/kg | > 85 µM | 8.57 µM | > 85 µM | 1.76 µM | 0.676 µg/mL | 0.676 µg/mL | <4.2 mL/min/kg | < 4.5 mL/min/kg | >51 (@ 7.4) ug/ml | Plasma Protein Binding % human ([1]; Example 12 chart, human): 39%; fraction unbound at 4 hr ([1]; pH 7.4, Table 2, human plasma): 0.61; IC50 [2]: > 5 µM; IC50 [2, 28]: > 5 µM; AUC [8]: 170 ng·h/mL; Kp ([8]; brain relative to blood): 0.0077; IC50 [11]: > 5 µM; IC50 [11, 29]: > 5 µM; IC50 [13]: 5.96 µM; IC50 [17]: > 5 µM; IC50 [17, 30]: > 5 µM; solubility at 16 hours [19, 27]: > 51 µg/mL

— patent publication US8633168B2, “Inhibitors of S-adenosyl-L-methionine decarboxylase” (Genzyme Corporation, priority 2007, dated 2014)
